Data reported in the supplement of paper PMC10307832.

Experiments:
Test in all cases: relative viability (nuclei count vs DMSO), 5 days (fraction); higher = more cells survive
[1] = compound: C1CCC(CC1)N(CCNCCC2=C3C(=C(C=C2)O)NC(=O)CO3)C(=O)CCNCCC4=CC(=C(C=C4)Cl)Cl [AZ505] + NC(=O)Nc1cc(-c2cccc(F)c2)sc1C(=O)N[C@H]1CCCNC1 [AZD7762] (partner 0.2 µM)
Summary of the method: (§1)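 Each reported value is a median over duplicate plates. It expresses relative viability: treated-well nuclei count divided by vehicle-well nuclei count. Lung cancer cell lines in 1536-well plates were dosed by pin tool a day after seeding, alone with one drug or with a fixed anchor-drug dose plus five library-drug doses (not always all listed) in √10 steps, and nuclei were counted after 5 days.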

[2] = compound: C1CCC(CC1)N(CCNCCC2=C3C(=C(C=C2)O)NC(=O)CO3)C(=O)CCNCCC4=CC(=C(C=C4)Cl)Cl [AZ505] + O=C(c1cc(Cc2n[nH]c(=O)c3ccccc23)ccc1F)N1CCN(C(=O)C2CC2)CC1 [Olaparib] (partner 8 µM)
Summary of the method: as §1

[3] = compound: Cn1c(=O)n(-c2ccc(C(C)(C)C#N)cc2)c2c3cc(-c4cnc5ccccc5c4)ccc3ncc21 [Dactolisib] + COc1cc2c(Oc3ccc(NC(=O)C4(C(=O)Nc5ccc(F)cc5)CC4)cc3F)ccnc2cc1OCCCN1CCOCC1 [Foretinib] (partner 0.25 µM)
Summary of the method: as §1

[4] = compound: Cn1c(=O)n(-c2ccc(C(C)(C)C#N)cc2)c2c3cc(-c4cnc5ccccc5c4)ccc3ncc21 [Dactolisib] + C[C@@H](Oc1cc(-c2cnn(C3CCNCC3)c2)cnc1N)c1c(Cl)ccc(F)c1Cl [Crizotinib] (partner 1 µM)
Summary of the method: as §1

| Cell Line | relative viability ([1]; first compound 0.08 µM) | relative viability ([1]; first compound 0.253 µM) | relative viability ([1]; first compound 0.8 µM) | relative viability ([1]; first compound 2.53 µM) | relative viability ([1]; first compound 8 µM) | relative viability ([2]; first compound 0.08 µM) | relative viability ([2]; first compound 0.253 µM) | relative viability ([2]; first compound 0.8 µM) | relative viability ([2]; first compound 2.53 µM) | relative viability ([2]; first compound 8 µM) | relative viability ([3]; first compound 0.002 µM) | relative viability ([3]; first compound 0.006325 µM) | relative viability ([3]; first compound 0.02 µM) | relative viability ([3]; first compound 0.06325 µM) | relative viability ([3]; first compound 0.2 µM) | relative viability ([4]; first compound 0.002 µM) | relative viability ([4]; first compound 0.006325 µM) | relative viability ([4]; first compound 0.02 µM) | relative viability ([4]; first compound 0.06325 µM) | relative viability ([4]; first compound 0.2 µM) |
| --- | --- | --- | --- | --- | --- | --- | --- | --- | --- | --- | --- | --- | --- | --- | --- | --- | --- | --- | --- | --- |
| NCI-H1734 | 0.519 | 0.333 | 0.526 | 0.494 | 0.576 | 0.603 | 0.673 | 0.613 | 0.63 | 0.641 | 0.837 | 0.773 | 0.805 | 0.467 | 0.284 | 0.634 | 0.578 | 0.454 | 0.333 | 0.164 |
| NCI-H1755 | 0.348 | 0.471 | 0.495 | 0.421 | 0.432 | 0.82 | 0.849 | 0.92 | 0.885 | 0.868 | 0.903 | 0.924 | 0.936 | 0.676 | 0.691 | 0.931 | 0.802 | 0.823 | 0.596 | 0.438 |
| NCI-H1915 | 0.707 | 0.753 | 0.7 | 0.727 | 0.716 | 0.259 | 0.272 | 0.247 | 0.272 | 0.257 | 1.19 | 1.06 | 1.08 | 0.832 | 0.467 | 0.889 | 0.903 | 0.916 | 0.713 | 0.529 |
| NCI-H1944 | 0.455 | 0.519 | 0.727 | 0.389 | 0.474 | 0.39 | 0.411 | 0.497 | 0.413 | 0.423 | 1.13 | 0.914 | 0.852 | 0.425 | 0.392 | 1.18 | 1.06 | 1.03 | 0.46 | 0.392 |
| NCI-H1975 | 0.674 | 0.614 | 0.765 | 0.703 | 0.81 | 0.747 | 0.883 | 0.75 | 0.775 | 0.904 | 1.06 | 0.897 | 0.715 | 0.454 | 0.334 | 1.18 | 0.948 | 0.7 | 0.358 | 0.34 |
| NCI-H1993 | 0.629 | 0.722 | 0.609 | 0.854 | 0.943 | 0.995 | 1.12 | 1.14 | 1.01 | 1.16 | 0.706 | 0.774 | 0.61 | 0.473 | 0.492 | 0.84 | 0.761 | 0.66 | 0.594 | 0.585 |
| NCI-H2085 | 0.879 | 0.966 | 0.847 | 0.968 | 0.954 | 0.715 | 0.797 | 0.654 | 0.735 | 0.729 | 1.09 | 1.05 | 0.747 | 0.337 | 0.301 | 0.904 | 0.763 | 0.668 | 0.523 | 0.305 |
| NCI-H2087 | 1.22 | 1.24 | 1.35 | 1.15 | 1.24 | 0.515 | 0.536 | 0.552 | 0.629 | 0.611 | 0.979 | 0.919 | 0.817 | 0.378 | 0.33 | 0.952 | 0.85 | 1.04 | 0.63 | 0.785 |
